Measured values: patent US20230247992A1, “ARTHROPOD CONTROL COMPOSITION” (Firmenich SA, priority 2020, published 2023)
Read-outs that look alike come from different tables or passages of the source.

Tests used:
Type in all cases: in vivo
Aedes aegypti [1] = test: in vitro Warm Body assay, substance applied on glass Petri dish on top of the warm body (deterrence and repellence)
Experimental: (§1) The controlling effect, repellence & spatial repellence, according to the present invention is determined by testing the Warm Body assay against the yellow fever mosquito, Aedes aegypti Rockefeller strain. […] Observations of controlling efficacy were made on host-seeking females of uniform age, 5 to 10 days old selected as mentioned in the publication mentioned hereinabove. Tested hungry females had access to 10% sugar solution but were not blood-fed. Further information is provided in the accompanying examples.
(§2) The published protocol has been adapted in not manually counting the landing mosquitoes but automatically using an automatic counting software, the switch from Anopheles gambiae to A. aegypti led to a decrease of mosquitoes’ number placed in the tested cage due to the size difference (i.e. 30 mosquitoes instead of 50) and to an increase of lighting as A. aegypti is a diurnal mosquitoes (i.e. 150 lux instead of 4 lux). Further information is provided in the accompanying examples.,
(§3) The controlling effect of the compositions according to the present invention was assessed using an adapted Warm Body assay as defined in Kröber T, Kessler S, Frei J, Bourquin M, Guerin PM. 2010. An in vitro assay for testing mosquito controlling compounds employing a warm body and carbon dioxide as a behavioral activator. J Am Mosq Control Assoc. 26:381-386. In this in-vitro assay the number of mosquito landing on a warm body, simulating an attractive host treated with the tested stimuli, was measured in order to assess the repellence effect.
as §2, with “to Aedes” for “to A.”, “lux).” for “lux). Further information is provided in the accompanying examples.,”
(§4) In addition, since the inventors were interested by assessing spatial repellence added or not to a deterrent effect, the substance was applied using two different technics. Whether, as in Kröber et al. (2010), both deterrent and repellent effect were investigated (i.e. similar effect than most body care applications such as lotion) and the substances was applied on a sandblasted glass Petri dish placed on top of the warm body. Whether only the spatial repellence was investigated (i.e. similar effect than most home care applications such as liquid electric dispenser) and the substance was introduced in the cage space thanks to a forced evaporation system as described in Chappuis C J-F, Niclass Y, Vuilleumier C, Starkenmann C. 2015. Quantitative Headspace Analysis of Selected Odorants from Latrines in Africa and India. Environ. Sci. Technol. 49:6134-6140.
(§5) As stated in Kröber et al. (2010), selected 10-12 days old hungry females, that had ad libitum access to 10% sugar solution but were not blood-fed, were selected for the assay.
On the sandblasted glass Petri dish covering the warm body (28.3 cm^2), 100 µL of the substances diluted at different concentrations in ethanol was applied. The number of mosquito landing on the warm body was counted for each stimuli, N,N-diethyl-3-methylbenzamide (DEET) and ethyl 3-[acetyl(butyl)amino]propanoate (IR3535) being used as benchmarks and pure ethanol as control.

Aedes aegypti [2] = test: in vitro Warm Body assay, substance introduced in the cage air by forced evaporation (spatial repellence)
Experimental: as §1, §2, §3
as §2, with “to Aedes” for “to A.”, “lux).” for “lux). Further information is provided in the accompanying examples.,”
as §4, §5
The forced evaporation system allows to fill the volume of the cage with stimuli tested, (2-methyl-4-oxo-3-prop-2-ynylcyclopent-2-en-1-yl) 2,2-dimethyl-3-(2-methylprop-1-enyl)cyclopropane-1-carboxylate (prallethrin) and N,N-diethyl-3-methylbenzamide (DEET) being used as benchmarks. In order to limit potential dead volumes in the cage, five flushes of the cage were made before starting the 2 minutes test during which the number of mosquito landings was counted.

Ixodes ricinus = test: whole plant or invertebrate; conditions: for pest or weed control at 1 µg/cm2, 1 µg/cm2 / pest or weed control at 5 µg/cm2, 5 µg/cm2 / pest or weed control at 25 µg/cm2, 25 µg/cm2 / pest or weed control at 0.04 µg/cm2, 0.04 µg/cm2: Ixodes ricinus, read-out: mean percentage of ticks affected; for pest or weed control at 0.04 µg/cm2, 0.04 µg/cm2: 0.04 µg/cm^2, diluted in ethanol; for tick response compared with the benchmark IR3535: concentrations tested
[3] = 0.04% in ethanol, ethanol control 67.0±8.8 landings
[4] = 1% in ethanol, ethanol control 67.0±8.8 landings
[5] = […] in ethanol, ethanol control 67.0±8.8 landings
[6] = 0.04% in ethanol, ethanol control 59.3±6.9 landings
[7] = 1% in ethanol, ethanol control 59.3±6.9 landings
[8] = […] in ethanol, ethanol control 59.3±6.9 landings
[9] = 0.0017 µg/L air, without substance 54.7±3.2
[10] = 0.017 µg/L air, without substance 54.7±3.2
[11] = 0.17 µg/L air, without substance 54.7±3.2
[12] = 1.7 µg/L air, without substance 54.7±3.2
[13] = 17 µg/L air, without substance 54.7±3.2
[14] = 1 µg/cm^2, diluted in ethanol, ethanol control 1.0±1.2%
[15] = 5 µg/cm^2, diluted in ethanol, ethanol control 1.0±1.2%
[16] = 25 µg/cm^2, diluted in ethanol, ethanol control 1.0±1.2%
[17] = 1 µg/cm^2, diluted in ethanol, ethanol control 0.6±0.5%
[18] = 25 µg/cm^2, diluted in ethanol, ethanol control 0.6±0.5%
[19] = 0.04% in ethanol, ethanol control 67.1±9.1 landings
[20] = 1% in ethanol, ethanol control 67.1±9.1 landings
[21] = […] in ethanol, ethanol control 67.1±9.1 landings
[22] = 0.0017 µg/L air, without substance 56.0±3.6
[23] = 0.017 µg/L air, without substance 56.0±3.6
[24] = 0.17 µg/L air, without substance 56.0±3.6
[25] = 1.7 µg/L air, without substance 56.0±3.6
[26] = 17 µg/L air, without substance 56.0±3.6

| SMILES | number of mosquitoes landing within 2 minutes on the warm body (Aedes aegypti [1]; [3]) | number of mosquitoes landing within 2 minutes on the warm body (Aedes aegypti [1]; [4]) | number of mosquitoes landing within 2 minutes on the warm body (Aedes aegypti [1]; [5]) | pest or weed control at 1 µg/cm2, 1 µg/cm2 (Ixodes ricinus) [%] | pest or weed control at 5 µg/cm2, 5 µg/cm2 (Ixodes ricinus) [%] | pest or weed control at 25 µg/cm2, 25 µg/cm2 (Ixodes ricinus) [%] | number of mosquitoes landing within 2 minutes on the warm body (Aedes aegypti [1]; [6]) | number of mosquitoes landing within 2 minutes on the warm body (Aedes aegypti [1]; [7]) | number of mosquitoes landing within 2 minutes on the warm body (Aedes aegypti [1]; [8]) | number of mosquitoes landing within 2 minutes on the warm body, air in the cage saturated with stimulus (Aedes aegypti [2]; [9]) | number of mosquitoes landing within 2 minutes on the warm body, air in the cage saturated with stimulus (Aedes aegypti [2]; [10]) | number of mosquitoes landing within 2 minutes on the warm body, air in the cage saturated with stimulus (Aedes aegypti [2]; [11]) | number of mosquitoes landing within 2 minutes on the warm body, air in the cage saturated with stimulus (Aedes aegypti [2]; [12]) | number of mosquitoes landing within 2 minutes on the warm body, air in the cage saturated with stimulus (Aedes aegypti [2]; [13]) | pest or weed control at 1 µg/cm2, 1 µg/cm2 (Ixodes ricinus; [14]) [%] | pest or weed control at 5 µg/cm2, 5 µg/cm2 (Ixodes ricinus; [15]) [%] | pest or weed control at 25 µg/cm2, 25 µg/cm2 (Ixodes ricinus; [16]) [%] | number of mosquitoes landing within 2 minutes on the warm body (Aedes aegypti [1]; [19]) | number of mosquitoes landing within 2 minutes on the warm body (Aedes aegypti [1]; [20]) | number of mosquitoes landing within 2 minutes on the warm body (Aedes aegypti [1]; [21]) | other results |
| --- | --- | --- | --- | --- | --- | --- | --- | --- | --- | --- | --- | --- | --- | --- | --- | --- | --- | --- | --- | --- | --- |
| C/C=C/c1ccc(O)c(OC)c1 [2-methoxy-4-[(E)-prop-1-enyl]phenol] | 14.0 | 0.0 | 57.0 | 8 | 67 | 83 | – | – | – | – | – | – | – | – | – | – | – | – | – | – | landings per minute (Aedes aegypti [1]; concentration of 0.04%): ~ 10 landings per minute; number of mosquitoes landing within 2 minutes on the warm body, air in the cage saturated with stimulus (Aedes aegypti [2]; 0.017 µg/L air, without substance 54.1±4.9): 12.0; number of mosquitoes landing within 2 minutes on the warm body, air in the cage saturated with stimulus (Aedes aegypti [2]; 0.17 µg/L air, without substance 54.1±4.9): 4.0; number of mosquitoes landing within 2 minutes on the warm body, air in the cage saturated with stimulus (Aedes aegypti [2]; 1.7 µg/L air, without substance 54.1±4.9): 11.0 |
| CC(C=O)Cc1ccc(C(C)C)cc1 (centres unmarked) [2-methyl-3-(4-propan-2-ylphenyl)propanal] | – | – | – | – | – | – | 20.0 | 1.0 | 49.0 | 26.3 | 21.3 | 7.8 | 5.0 | 7.5 | 7 | 46 | 85 | – | – | – | – |
| O=C1CCC2CCCCC2O1 (centres unmarked) [3,4,4a,5,6,7,8,8a-octahydrochromen-2-one] | 7.0 | 0.0 | 45.0 | – | – | – | – | – | – | – | – | – | – | – | – | – | – | – | – | – | pest or weed control at 0.04 µg/cm2, 0.04 µg/cm2 (Ixodes ricinus; ethanol control 0.6±0.5%): 33%; pest or weed control at 1 µg/cm2, 1 µg/cm2 (Ixodes ricinus; [17]): 17%; pest or weed control at 25 µg/cm2, 25 µg/cm2 (Ixodes ricinus; [18]): 92% |
| C=Cc1ccc(O)c(OC)c1 [4-ethenyl-2-methoxyphenol] | – | – | – | 17 | 46 | 100 | – | – | – | – | – | – | – | – | – | – | – | 5.0 | 0.0 | 36.0 | number of mosquitoes landing within 2 minutes on the warm body, air in the cage saturated with stimulus (Aedes aegypti [2]; [22]): 11.0; number of mosquitoes landing within 2 minutes on the warm body, air in the cage saturated with stimulus (Aedes aegypti [2]; [23]): 15.0; number of mosquitoes landing within 2 minutes on the warm body, air in the cage saturated with stimulus (Aedes aegypti [2]; [24]): 0.0; number of mosquitoes landing within 2 minutes on the warm body, air in the cage saturated with stimulus (Aedes aegypti [2]; [25]): 3.0; number of mosquitoes landing within 2 minutes on the warm body, air in the cage saturated with stimulus (Aedes aegypti [2]; [26]): 2.0; landings in 2 minutes (Aedes aegypti [2]; dose of 0.17 µg/L of air): less than five; ticks prevented from climbing up in search of a feeding site (Ixodes ricinus; highest concentration of 1% (25 µg/cm^2)): all tested ticks |
| CCCCCC1CCC(=O)O1 (centres unmarked) [5-pentyloxolan-2-one] | – | – | – | – | – | – | 16.0 | 1.0 | 76.0 | 14.7 | 23.0 | 15.3 | 7.7 | 2.0 | 31 | 83 | 100 | – | – | – | tick response compared with the benchmark IR3535 (Ixodes ricinus): response similar to the benchmark IR3535 |
| CC(C)=CCC/C(C)=C/C=O [(2E)-3,7-dimethylocta-2,6-dienal] | – | – | – | 15 | 0 | 58 | 16.0 | 2.0 | 89.0 | 25.3 | 15.7 | 15.3 | 14.7 | 23.0 | – | – | – | – | – | – | decrease of landings (Aedes aegypti [2]; identical at all concentrations tested): ~ 67% |
| CCC/C=C1\OC(=O)c2ccccc21 [(3Z)-3-butylidene-2-benzofuran-1-one] | – | – | – | 77 | 100 | 100 | – | – | – | – | – | – | – | – | – | – | – | 9.0 | 1.0 | 54.0 | number of mosquitoes landing within 2 minutes on the warm body, air in the cage saturated with stimulus (Aedes aegypti [2]; [22]): 59.0; number of mosquitoes landing within 2 minutes on the warm body, air in the cage saturated with stimulus (Aedes aegypti [2]; [23]): 31.5; number of mosquitoes landing within 2 minutes on the warm body, air in the cage saturated with stimulus (Aedes aegypti [2]; [24]): 17.0; number of mosquitoes landing within 2 minutes on the warm body, air in the cage saturated with stimulus (Aedes aegypti [2]; [25]): 11.0; number of mosquitoes landing within 2 minutes on the warm body, air in the cage saturated with stimulus (Aedes aegypti [2]; [26]): 37.0; repulsion (Aedes aegypti [2]; doses of 1.7 and/or 17 µg/L in air): < 90%; tick response compared with the benchmark IR3535 (Ixodes ricinus): greater tick repellency; ticks affected (Ixodes ricinus; intermediate dose tested (0.2%)): all tested ticks were affected; fraction of the ticks affected (Ixodes ricinus; lowest dose tested (0.04%)): more than ¾ |
| CCCCN(CCC(=O)OCC)C(C)=O [ethyl 3-[acetyl(butyl)amino]propanoate, reference compound] | 20.7 | 7.7 | 70.0 | – | – | – | 20.7 | 7.7 | 70.0 | – | – | – | – | – | 33 | 67 | 91 | 20.7 | 7.7 | 70.0 | mean percentage of ticks affected (Ixodes ricinus; [17]): 33%; mean percentage of ticks affected (Ixodes ricinus; 1 µg/cm^2, diluted in ethanol, ethanol control 4.3±2.1%): 33%; mean percentage of ticks affected (Ixodes ricinus; 5 µg/cm^2, diluted in ethanol, ethanol control 0.6±0.5%): 67%; mean percentage of ticks affected (Ixodes ricinus; 5 µg/cm^2, diluted in ethanol, ethanol control 4.3±2.1%): 67%; mean percentage of ticks affected (Ixodes ricinus; [18]): 91%; mean percentage of ticks affected (Ixodes ricinus; 25 µg/cm^2, diluted in ethanol, ethanol control 4.3±2.1%): 91%; pest or weed control at 0.04 µg/cm2, 0.04 µg/cm2 (Ixodes ricinus; ethanol control 0.6±0.5%): 13% |
